Test results from PubChem BioAssay (NCI).
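Where inhibition never reached the appropriate level, the endpoint shown equals the highest concentration tested. Otherwise, values were interpolated linearly from a five-concentration, 48-hour dose response in 96-well plates. Abbreviation: GI50, concentration required for 50% inhibition of growth. Definition used: TGI = concentration required for complete inhibition of growth.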

Legend:
Assay in all cases: NCI tumour cell line growth inhibition, 48 h
HOP-62 NSCLC = test system: HOP-62 NSCLC
OVCAR-8 ovarian = test system: OVCAR-8 ovarian
NCI-H460 lung = test system: NCI-H460 lung
SF-295 CNS = test system: SF-295 CNS
IGROV1 ovarian = test system: IGROV1 ovarian
UACC-257 melanoma = test system: UACC-257 melanoma
SF-268 CNS = test system: SF-268 CNS
U251 CNS = test system: U251 CNS
NCI-H226 lung = test system: NCI-H226 lung
HCC-2998 colon = test system: HCC-2998 colon

## O=c1c(-c2ccccc2)coc2cc(OC/C(=N/O)c3ccc(F)cc3)ccc12
HOP-62 NSCLC
  GI50: 27 µM
  TGI: 53.5 µM
OVCAR-8 ovarian
  GI50: 16.9 µM
  TGI: 43.4 µM
NCI-H460 lung
  GI50: 17.4 µM
  TGI: 38.2 µM
SF-295 CNS
  GI50: 25.5 µM
  TGI: 82.4 µM
IGROV1 ovarian
  GI50: 19.9 µM
  TGI: > 100 µM
UACC-257 melanoma
  GI50: 10.2 µM
  TGI: 27.3 µM
SF-268 CNS
  GI50: 21.5 µM
  TGI: 50.6 µM
U251 CNS
  GI50: 18.2 µM
  TGI: 36.8 µM
NCI-H226 lung
  GI50: 25.1 µM
  TGI: 77.7 µM

## COc1ccc2c(c1)/C(=C\c1c[nH]c3ccc(OC)cc13)C(=O)N2
HOP-62 NSCLC
  GI50: 2.72 µM
  TGI: 12.5 µM
NCI-H460 lung
  GI50: 3.26 µM
  TGI: 13.1 µM
SF-295 CNS
  GI50: 3.67 µM
  TGI: 16.8 µM
IGROV1 ovarian
  GI50: 3.66 µM
  TGI: 17.1 µM
SF-268 CNS
  GI50: 3.61 µM
  TGI: 15.3 µM
HCC-2998 colon
  GI50: 3.77 µM
  TGI: 14.7 µM
NCI-H226 lung
  GI50: 4.59 µM
  TGI: 25.6 µM

## CCN(CC)CCCC(C)Nc1c(Sc2cnc3cc(Cl)ccc3c2NC(C)CCCN(CC)CC)cnc2cc(Cl)ccc12 (centres undefined)
OVCAR-8 ovarian
  TGI: 3.15 µM
NCI-H460 lung
  TGI: 3.23 µM
IGROV1 ovarian
  TGI: 3.51 µM
UACC-257 melanoma
  TGI: 3.49 µM
SF-268 CNS
  TGI: 3.83 µM
U251 CNS
  TGI: 2.99 µM
HCC-2998 colon
  TGI: 1.14 µM
NCI-H226 lung
  TGI: 3.52 µM

## CC(=O)O.CC(=O)O.CC(=O)O.CC(=O)O.[Rh].[Rh]
HOP-62 NSCLC
  GI50: 28.8 µM
  TGI: 84.3 µM
OVCAR-8 ovarian
  GI50: 27.6 µM
  TGI: > 100 µM
NCI-H460 lung
  GI50: 37.4 µM
  TGI: > 100 µM
IGROV1 ovarian
  GI50: 34 µM
  TGI: 91.1 µM
UACC-257 melanoma
  GI50: 19.5 µM
  TGI: 64.8 µM
SF-268 CNS
  GI50: 33.2 µM
  TGI: > 100 µM
U251 CNS
  GI50: 25.2 µM
  TGI: 75.3 µM
HCC-2998 colon
  GI50: 24 µM
  TGI: 56.7 µM
NCI-H226 lung
  GI50: 22 µM
  TGI: 99.2 µM

## COc1cc(/C=C\c2ccncc2)cc(OC)c1OC
HOP-62 NSCLC
  TGI: > 100 µM
OVCAR-8 ovarian
  TGI: > 100 µM
NCI-H460 lung
  TGI: > 100 µM
SF-295 CNS
  TGI: > 100 µM
IGROV1 ovarian
  TGI: > 100 µM
UACC-257 melanoma
  TGI: > 100 µM
SF-268 CNS
  TGI: > 100 µM
U251 CNS
  TGI: > 100 µM
NCI-H226 lung
  TGI: > 100 µM

## O=C(Nc1ccccc1Cl)c1cccc(NC2=C(Cl)C(=O)N(Cc3ccccc3)C2=O)c1
OVCAR-8 ovarian
  GI50: 20.8 µM
  TGI: > 100 µM
NCI-H460 lung
  GI50: 26.8 µM
  TGI: > 100 µM
SF-295 CNS
  GI50: 23.3 µM
  TGI: 92.3 µM
IGROV1 ovarian
  GI50: 0.549 µM
  TGI: 2.29 µM
UACC-257 melanoma
  GI50: 24.3 µM
  TGI: > 100 µM
SF-268 CNS
  GI50: 18.6 µM
  TGI: 58.6 µM
U251 CNS
  GI50: 21 µM
  TGI: > 100 µM
HCC-2998 colon
  GI50: 20.5 µM
  TGI: 54.5 µM
NCI-H226 lung
  GI50: 4.45 µM
  TGI: 46.4 µM

## COc1ccc2c(c1)C(=O)c1c-2n(CCCN)c(=O)c2cc([N+](=O)[O-])ccc12
HOP-62 NSCLC
  GI50: < 0.01 µM
  TGI: 0.0234 µM
NCI-H460 lung
  GI50: < 0.01 µM
  TGI: 0.0146 µM
SF-295 CNS
  GI50: < 0.01 µM
  TGI: 12.2 µM
IGROV1 ovarian
  GI50: < 0.01 µM
  TGI: 0.192 µM
UACC-257 melanoma
  GI50: < 0.01 µM
  TGI: 0.736 µM
SF-268 CNS
  GI50: < 0.01 µM
  TGI: < 0.01 µM
U251 CNS
  GI50: < 0.01 µM
NCI-H226 lung
  GI50: < 0.01 µM
  TGI: < 0.01 µM

## Clc1ccccc1NN(Cc1ccncc1)c1ccccc1Cl
HOP-62 NSCLC
  TGI: 29.2 µM
OVCAR-8 ovarian
  TGI: 29.3 µM
SF-295 CNS
  TGI: 31.6 µM
IGROV1 ovarian
  TGI: 27.7 µM
SF-268 CNS
  TGI: 36.2 µM
U251 CNS
  TGI: 26.4 µM
NCI-H226 lung
  TGI: 39.3 µM

## Cc1oc2c(c1C(=O)N1CC[C@@H](N)C1)C(=O)c1c(c(O)c3ccccc3c1O)C2=O
HOP-62 NSCLC
  GI50: 0.51 µM
  TGI: 4.11 µM
OVCAR-8 ovarian
  GI50: 1.25 µM
  TGI: 4.65 µM
NCI-H460 lung
  GI50: 0.308 µM
  TGI: 2.21 µM
SF-295 CNS
  GI50: 0.272 µM
  TGI: 1.79 µM
IGROV1 ovarian
  GI50: 1.27 µM
  TGI: 3.94 µM
SF-268 CNS
  GI50: 1.83 µM
  TGI: 10.6 µM
U251 CNS
  GI50: 1.27 µM
  TGI: 9.27 µM
HCC-2998 colon
  GI50: 3.11 µM
  TGI: 11.7 µM
NCI-H226 lung
  GI50: 1.52 µM
  TGI: 22.6 µM

## Cc1nc2c(sc(=S)n2-c2ccccc2)c2nc3ccccc3n12
HOP-62 NSCLC
  TGI: > 100 µM
OVCAR-8 ovarian
  TGI: > 100 µM
SF-295 CNS
  TGI: > 100 µM
IGROV1 ovarian
  TGI: > 100 µM
UACC-257 melanoma
  TGI: > 100 µM
SF-268 CNS
  TGI: > 100 µM
U251 CNS
  TGI: > 100 µM
HCC-2998 colon
  TGI: > 100 µM
NCI-H226 lung
  TGI: > 100 µM

## O=C1c2ccccc2C(=O)N1C1(C(=O)NC2(C(=O)O)CCCC2)CCCC1
HOP-62 NSCLC
  TGI: > 100 µM
OVCAR-8 ovarian
  TGI: > 100 µM
SF-295 CNS
  TGI: > 100 µM
IGROV1 ovarian
  TGI: > 100 µM
UACC-257 melanoma
  TGI: > 100 µM
SF-268 CNS
  TGI: > 100 µM
U251 CNS
  TGI: > 100 µM
HCC-2998 colon
  TGI: > 100 µM
NCI-H226 lung
  TGI: > 100 µM

## NC(=O)C12CC3CC(CC(Br)(C3)C1)C2
HOP-62 NSCLC
  TGI: > 100 µM
OVCAR-8 ovarian
  TGI: > 100 µM
NCI-H460 lung
  TGI: > 100 µM
SF-295 CNS
  TGI: > 100 µM
IGROV1 ovarian
  TGI: > 100 µM
UACC-257 melanoma
  TGI: > 100 µM
SF-268 CNS
  TGI: > 100 µM
U251 CNS
  TGI: > 100 µM
HCC-2998 colon
  TGI: > 100 µM

## Cc1cc(NC(=O)c2cnc(N3CCN(CCOCCOCCOCCOCCC(=O)N[C@H](C(=O)N4C[C@H](O)C[C@H]4C(=O)N[C@@H](C)c4ccc(-c5scnc5C)cc4)C(C)(C)C)CC3)cn2)c2ncccc2c1
OVCAR-8 ovarian
  GI50: 3.38 µM
  TGI: > 100 µM
NCI-H460 lung
  GI50: 3.37 µM
  TGI: 11 µM
SF-295 CNS
  GI50: 2.23 µM
  TGI: 6.31 µM
IGROV1 ovarian
  GI50: 2.39 µM
  TGI: 8.17 µM
UACC-257 melanoma
  GI50: 2.81 µM
  TGI: 7.97 µM
SF-268 CNS
  GI50: 3.02 µM
  TGI: 18.3 µM
U251 CNS
  GI50: 2.74 µM
  TGI: 7.92 µM
HCC-2998 colon
  GI50: 1.75 µM
  TGI: 3.25 µM
NCI-H226 lung
  GI50: 28.7 µM
  TGI: > 100 µM

## COc1ccc(-c2ccc(/C=N/n3c(COc4ccccc4Cl)n[nH]c3=S)o2)c([N+](=O)[O-])c1
HOP-62 NSCLC
  GI50: 26.7 µM
  TGI: 69.3 µM
OVCAR-8 ovarian
  GI50: 21.3 µM
  TGI: 55.4 µM
NCI-H460 lung
  GI50: 23.7 µM
  TGI: 52.7 µM
SF-295 CNS
  GI50: 22.6 µM
  TGI: 56.5 µM
IGROV1 ovarian
  GI50: 52.7 µM
  TGI: > 100 µM
UACC-257 melanoma
  GI50: 28.4 µM
  TGI: 63.5 µM
SF-268 CNS
  GI50: 32.3 µM
  TGI: 91.7 µM
U251 CNS
  GI50: 22 µM
  TGI: 57.5 µM
NCI-H226 lung
  GI50: 20.1 µM
  TGI: 50.9 µM

## CC1(C)CC2=C(Sc3ccccc3N2)C(=O)C1C(=O)C(=O)Nc1cc(Cl)ccc1Cl (centres undefined)
OVCAR-8 ovarian
  TGI: > 100 µM
NCI-H460 lung
  TGI: 28.1 µM
SF-295 CNS
  TGI: > 100 µM
IGROV1 ovarian
  TGI: > 100 µM
UACC-257 melanoma
  TGI: > 100 µM
SF-268 CNS
  TGI: > 100 µM
U251 CNS
  TGI: > 100 µM
HCC-2998 colon
  TGI: > 100 µM
NCI-H226 lung
  TGI: > 100 µM

## CCSc1nc(N)c(C#N)c(-c2ccco2)c1C#N
HOP-62 NSCLC
  GI50: 80.9 µM
  TGI: > 100 µM
OVCAR-8 ovarian
  GI50: 53.6 µM
  TGI: > 100 µM
NCI-H460 lung
  GI50: 33.5 µM
  TGI: > 100 µM
SF-295 CNS
  GI50: 47.7 µM
  TGI: > 100 µM
IGROV1 ovarian
  GI50: 36.8 µM
  TGI: > 100 µM
UACC-257 melanoma
  GI50: 31.7 µM
  TGI: 80.2 µM
SF-268 CNS
  GI50: 32.1 µM
  TGI: > 100 µM
U251 CNS
  GI50: 22.7 µM
  TGI: 83.7 µM
NCI-H226 lung
  GI50: 29.9 µM
  TGI: > 100 µM

## CC1=C(Cl)C[C@@H](/C(C)=C\Cl)O[C@@]1(O)C(Br)Br
HOP-62 NSCLC
  TGI: > 100 µM
OVCAR-8 ovarian
  TGI: > 100 µM
NCI-H460 lung
  TGI: > 100 µM
SF-295 CNS
  TGI: > 100 µM
IGROV1 ovarian
  TGI: > 100 µM
UACC-257 melanoma
  TGI: > 100 µM
SF-268 CNS
  TGI: > 100 µM
U251 CNS
  TGI: > 100 µM
HCC-2998 colon
  TGI: 99.6 µM
